Results reported in ChEMBL document CHEMBL1201862, “PubChem BioAssay data set” (2004).
Active and inactive are the calls of the source.

Key:
Estrogen receptor = biological target: T1, Estrogen receptor (Homo sapiens, UniProt P03372);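 also: potency for inhibiting coactivator peptide recruitment to the receptor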
T1 sequence (P03372 whole entry): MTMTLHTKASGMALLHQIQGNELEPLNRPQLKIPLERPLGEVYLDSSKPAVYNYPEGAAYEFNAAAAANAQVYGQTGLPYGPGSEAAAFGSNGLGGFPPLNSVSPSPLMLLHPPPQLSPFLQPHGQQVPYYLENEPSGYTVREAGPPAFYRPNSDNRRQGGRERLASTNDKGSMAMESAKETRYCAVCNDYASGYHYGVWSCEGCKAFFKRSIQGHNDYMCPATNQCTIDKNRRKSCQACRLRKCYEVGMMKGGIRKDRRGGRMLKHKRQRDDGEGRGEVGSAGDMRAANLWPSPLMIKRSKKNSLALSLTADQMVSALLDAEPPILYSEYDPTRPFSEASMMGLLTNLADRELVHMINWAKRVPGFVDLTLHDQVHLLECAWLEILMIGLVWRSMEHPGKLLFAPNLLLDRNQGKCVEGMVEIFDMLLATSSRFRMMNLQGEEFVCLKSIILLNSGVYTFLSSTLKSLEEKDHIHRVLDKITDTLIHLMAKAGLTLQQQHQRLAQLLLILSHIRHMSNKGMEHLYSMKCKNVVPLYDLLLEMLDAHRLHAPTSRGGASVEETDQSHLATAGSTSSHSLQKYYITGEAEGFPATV

[1] = biological target: T2, Tyrosine-protein phosphatase non-receptor type 11 (Homo sapiens, UniProt Q06124); assay: PTPN11 enzyme inhibitors – biochemical, selectivity assay for STEP inhibitor project, dose response (AID 602367); assay type: functional; details: read-out: IC50_Mean
T2 sequence (Q06124 whole entry): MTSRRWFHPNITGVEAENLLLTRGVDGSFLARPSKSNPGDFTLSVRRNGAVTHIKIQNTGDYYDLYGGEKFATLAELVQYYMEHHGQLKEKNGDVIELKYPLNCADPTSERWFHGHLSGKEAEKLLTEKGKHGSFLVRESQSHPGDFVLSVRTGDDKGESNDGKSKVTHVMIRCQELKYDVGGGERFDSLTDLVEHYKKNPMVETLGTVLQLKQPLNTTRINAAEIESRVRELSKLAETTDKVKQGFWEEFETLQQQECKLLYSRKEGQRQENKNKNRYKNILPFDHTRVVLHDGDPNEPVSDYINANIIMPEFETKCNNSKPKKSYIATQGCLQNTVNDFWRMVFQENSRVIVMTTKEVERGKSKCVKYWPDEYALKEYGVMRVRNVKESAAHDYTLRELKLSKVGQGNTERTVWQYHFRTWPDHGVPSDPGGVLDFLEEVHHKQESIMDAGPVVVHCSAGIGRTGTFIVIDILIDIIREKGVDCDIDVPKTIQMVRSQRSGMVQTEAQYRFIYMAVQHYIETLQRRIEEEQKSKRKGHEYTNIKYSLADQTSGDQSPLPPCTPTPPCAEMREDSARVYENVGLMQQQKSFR

Bcl-2-like protein 10 = Bcl-2-like protein 10 (Homo sapiens, UniProt Q9HD36); assay: Bcl-B/TR3 peptide binding disruption – biochemical, fluorescence polarization, FITC-TR3 peptide, selectivity assay for Bfl-1 inhibitor project, primary screen (AID 748);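 also: fluorescence polarization from a fluorescein-labelled TR3 peptide binding purified Bcl-B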
Sequence of Bcl-2-like protein 10 (Q9HD36 whole entry): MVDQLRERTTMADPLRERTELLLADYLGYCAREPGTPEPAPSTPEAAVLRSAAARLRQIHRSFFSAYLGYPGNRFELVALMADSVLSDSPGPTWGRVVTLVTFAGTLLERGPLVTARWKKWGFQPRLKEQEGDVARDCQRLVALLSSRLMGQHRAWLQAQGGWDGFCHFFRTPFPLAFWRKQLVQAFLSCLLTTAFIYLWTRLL

[2] = biological target: T3, Tyrosine-protein phosphatase non-receptor type 22 (Homo sapiens, UniProt Q9Y2R2); assay: lymphoid phosphatase LYP inhibitors – biochemical, selectivity assay for STEP inhibitor project, dose response (AID 624241); assay type: functional
T3 sequence (Q9Y2R2 whole entry): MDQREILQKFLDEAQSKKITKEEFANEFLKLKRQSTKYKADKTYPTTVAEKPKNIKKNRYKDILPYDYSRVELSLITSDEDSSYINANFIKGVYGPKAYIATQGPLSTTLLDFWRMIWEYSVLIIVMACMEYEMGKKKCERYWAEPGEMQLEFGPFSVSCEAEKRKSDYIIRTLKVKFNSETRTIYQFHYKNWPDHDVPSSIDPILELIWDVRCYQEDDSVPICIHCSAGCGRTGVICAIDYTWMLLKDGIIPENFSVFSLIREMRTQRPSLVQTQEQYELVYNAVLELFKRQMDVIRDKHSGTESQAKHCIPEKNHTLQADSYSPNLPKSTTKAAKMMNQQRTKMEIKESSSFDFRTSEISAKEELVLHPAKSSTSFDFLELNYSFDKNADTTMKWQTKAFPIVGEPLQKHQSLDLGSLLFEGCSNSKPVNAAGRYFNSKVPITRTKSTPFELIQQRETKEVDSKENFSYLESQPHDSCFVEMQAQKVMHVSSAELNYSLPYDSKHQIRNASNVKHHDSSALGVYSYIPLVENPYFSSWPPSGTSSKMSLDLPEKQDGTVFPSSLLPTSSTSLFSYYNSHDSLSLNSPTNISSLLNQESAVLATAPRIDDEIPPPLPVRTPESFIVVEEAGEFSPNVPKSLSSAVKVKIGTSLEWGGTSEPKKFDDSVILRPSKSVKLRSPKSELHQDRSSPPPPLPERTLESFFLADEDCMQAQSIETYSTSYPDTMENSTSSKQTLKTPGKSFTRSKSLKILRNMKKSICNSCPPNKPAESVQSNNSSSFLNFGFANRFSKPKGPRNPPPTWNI

[3] = biological target: DNA (cytosine-5)-methyltransferase 1 (Homo sapiens, UniProt P26358); assay: inhibition of DNA methylation by DNMT1 – biochemical, fluorescent molecular beacon, confirmation (AID 602386); assay type: functional
Sequence of DNA (cytosine-5)-methyltransferase 1 (P26358 whole entry): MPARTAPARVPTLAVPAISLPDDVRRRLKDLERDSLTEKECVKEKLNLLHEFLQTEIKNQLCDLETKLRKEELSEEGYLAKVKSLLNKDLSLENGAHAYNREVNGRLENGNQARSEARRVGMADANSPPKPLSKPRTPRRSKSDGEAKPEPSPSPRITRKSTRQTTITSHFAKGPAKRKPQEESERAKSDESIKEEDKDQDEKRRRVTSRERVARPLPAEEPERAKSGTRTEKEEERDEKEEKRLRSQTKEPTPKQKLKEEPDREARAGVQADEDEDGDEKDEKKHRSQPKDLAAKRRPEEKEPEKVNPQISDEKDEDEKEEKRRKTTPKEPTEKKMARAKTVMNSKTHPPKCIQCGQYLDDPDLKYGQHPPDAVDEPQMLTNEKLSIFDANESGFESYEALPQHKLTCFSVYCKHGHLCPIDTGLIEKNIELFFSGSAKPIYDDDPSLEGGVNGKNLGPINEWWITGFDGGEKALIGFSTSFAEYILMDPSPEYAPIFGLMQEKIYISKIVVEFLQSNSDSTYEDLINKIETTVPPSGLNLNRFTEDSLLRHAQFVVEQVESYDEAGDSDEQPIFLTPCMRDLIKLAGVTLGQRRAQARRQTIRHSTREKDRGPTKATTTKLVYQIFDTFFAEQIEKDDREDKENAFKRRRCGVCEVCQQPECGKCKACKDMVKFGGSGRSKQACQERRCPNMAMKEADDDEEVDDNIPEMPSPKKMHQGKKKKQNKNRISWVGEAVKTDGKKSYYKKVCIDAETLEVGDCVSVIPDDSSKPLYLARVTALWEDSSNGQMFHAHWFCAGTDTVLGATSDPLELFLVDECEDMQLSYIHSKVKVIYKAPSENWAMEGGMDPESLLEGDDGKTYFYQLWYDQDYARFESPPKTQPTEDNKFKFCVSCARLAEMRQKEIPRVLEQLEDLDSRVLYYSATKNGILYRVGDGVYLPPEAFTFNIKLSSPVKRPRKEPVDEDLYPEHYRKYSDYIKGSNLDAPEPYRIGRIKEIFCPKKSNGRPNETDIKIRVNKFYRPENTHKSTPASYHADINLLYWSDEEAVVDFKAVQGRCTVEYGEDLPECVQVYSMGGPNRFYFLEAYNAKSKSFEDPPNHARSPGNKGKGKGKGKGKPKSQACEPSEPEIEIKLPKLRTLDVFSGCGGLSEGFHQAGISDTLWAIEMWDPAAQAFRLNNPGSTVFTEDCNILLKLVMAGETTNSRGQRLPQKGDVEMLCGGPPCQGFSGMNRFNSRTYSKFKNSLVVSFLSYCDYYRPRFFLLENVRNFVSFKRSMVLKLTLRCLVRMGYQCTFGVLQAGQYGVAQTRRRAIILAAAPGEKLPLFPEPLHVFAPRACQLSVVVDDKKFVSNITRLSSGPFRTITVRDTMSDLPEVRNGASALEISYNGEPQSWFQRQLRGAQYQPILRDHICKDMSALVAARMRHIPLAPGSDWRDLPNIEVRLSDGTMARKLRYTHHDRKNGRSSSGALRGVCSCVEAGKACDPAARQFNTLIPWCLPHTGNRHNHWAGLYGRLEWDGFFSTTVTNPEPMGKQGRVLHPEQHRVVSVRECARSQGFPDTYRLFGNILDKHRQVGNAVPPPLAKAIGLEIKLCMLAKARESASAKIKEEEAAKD

Estrogen receptor beta [4] = biological target: T4, Estrogen receptor beta (Homo sapiens, UniProt Q92731);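 also: recombinant ER-beta bound to coactivator SRC1 peptide in presence of estradiol agonist; inhibitors block coactivator peptide binding and lower the FRET signal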
T4 sequence (Q92731 whole entry): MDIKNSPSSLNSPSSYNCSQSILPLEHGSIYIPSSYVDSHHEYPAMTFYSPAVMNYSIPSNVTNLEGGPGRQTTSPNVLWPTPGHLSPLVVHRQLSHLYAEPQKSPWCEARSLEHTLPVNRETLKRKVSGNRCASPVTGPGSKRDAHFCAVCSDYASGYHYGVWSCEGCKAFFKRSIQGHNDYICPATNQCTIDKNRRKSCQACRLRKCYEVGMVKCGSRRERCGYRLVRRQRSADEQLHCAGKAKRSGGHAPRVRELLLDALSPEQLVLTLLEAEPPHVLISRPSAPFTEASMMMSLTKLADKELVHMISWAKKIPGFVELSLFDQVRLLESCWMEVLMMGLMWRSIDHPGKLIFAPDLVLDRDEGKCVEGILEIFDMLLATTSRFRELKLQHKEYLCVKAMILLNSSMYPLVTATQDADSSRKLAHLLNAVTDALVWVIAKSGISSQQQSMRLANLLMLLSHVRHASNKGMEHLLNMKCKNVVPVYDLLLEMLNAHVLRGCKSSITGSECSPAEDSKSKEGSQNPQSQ

[5] = HIV-1 Vif–A3G interaction blockers – biochemical, TR-FRET, GST-Vif 1-94, biotin-A3G peptide, dose response retest, primary screen (AID 1117319); assay type: functional;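 also: TR-FRET signal of purified GST-Vif binding a biotinylated A3G peptide; inhibitors lower the FRET signal by blocking Vif and A3G binding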
Estrogen receptor beta [6] = biological target: T4, Estrogen receptor beta; assay: blockers of SRC-3 recruitment to ERβ – biochemical, ELISA, streptavidin-HRP readout, orthogonal assay, confirmation (AID 1060)
[7] = biological target: T5, Tyrosine-protein phosphatase non-receptor type 7 (Homo sapiens, UniProt P35236); assay: HePTP tyrosine phosphatase activity blockers – biochemical, absorbance, leukemia target, primary screen (AID 521); assay type: functional
T5 sequence (P35236 whole entry): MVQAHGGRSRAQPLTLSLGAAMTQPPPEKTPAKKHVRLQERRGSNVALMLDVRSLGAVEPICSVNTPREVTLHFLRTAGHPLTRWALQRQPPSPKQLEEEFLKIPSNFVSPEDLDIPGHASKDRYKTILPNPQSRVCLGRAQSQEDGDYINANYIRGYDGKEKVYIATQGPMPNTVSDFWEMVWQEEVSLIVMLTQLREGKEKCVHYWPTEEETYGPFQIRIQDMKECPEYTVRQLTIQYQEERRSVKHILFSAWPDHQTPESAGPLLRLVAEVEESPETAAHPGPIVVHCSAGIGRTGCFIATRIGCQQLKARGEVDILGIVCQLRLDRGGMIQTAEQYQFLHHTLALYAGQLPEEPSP

[8] = biological target: Dual specificity protein phosphatase 3 (Homo sapiens, UniProt P51452); assay: VHR phosphatase inhibition, dose response, selectivity assay for STEP inhibitor project, biochemical (AID 602374); assay type: functional; details: read-out: IC50_Mean
Sequence of Dual specificity protein phosphatase 3 (P51452 whole entry): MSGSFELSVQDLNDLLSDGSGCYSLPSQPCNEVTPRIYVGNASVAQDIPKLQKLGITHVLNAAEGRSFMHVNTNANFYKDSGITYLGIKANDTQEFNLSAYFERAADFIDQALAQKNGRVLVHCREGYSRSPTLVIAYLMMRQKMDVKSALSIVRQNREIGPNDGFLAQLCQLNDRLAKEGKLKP

[9] = biological target: T6, Tyrosine-protein phosphatase non-receptor type 5 (Homo sapiens, UniProt P54829); assay: PTPN5 enzyme inhibition – biochemical, fluorescence intensity, uHTS hits, confirmation (AID 602372); assay type: functional; details: read-out: IC50_Mean
T6 sequence (P54829 whole entry): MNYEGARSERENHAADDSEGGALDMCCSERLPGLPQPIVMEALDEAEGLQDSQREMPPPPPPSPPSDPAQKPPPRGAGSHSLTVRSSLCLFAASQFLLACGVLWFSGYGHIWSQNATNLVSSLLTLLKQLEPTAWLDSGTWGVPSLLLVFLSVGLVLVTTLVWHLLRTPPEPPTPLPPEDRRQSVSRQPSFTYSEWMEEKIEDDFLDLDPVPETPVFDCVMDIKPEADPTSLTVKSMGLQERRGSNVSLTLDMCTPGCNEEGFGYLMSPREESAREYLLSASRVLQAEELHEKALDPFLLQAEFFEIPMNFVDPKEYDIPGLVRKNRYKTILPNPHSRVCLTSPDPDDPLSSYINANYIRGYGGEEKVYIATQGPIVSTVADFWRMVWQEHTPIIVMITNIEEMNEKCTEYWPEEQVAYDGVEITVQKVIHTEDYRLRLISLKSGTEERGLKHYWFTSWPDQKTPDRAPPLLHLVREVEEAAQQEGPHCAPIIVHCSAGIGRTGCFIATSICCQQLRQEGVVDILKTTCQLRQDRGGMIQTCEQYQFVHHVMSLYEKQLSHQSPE

[10] = biological target: Broad substrate specificity ATP-binding cassette transporter ABCG2 (Homo sapiens, UniProt Q9UNQ0); assay: blockers of JC-1 export by ABCG2 – Ig-MXP3 cells, flow cytometry, dose response (AID 1690); assay type: functional
Sequence of Broad substrate specificity ATP-binding cassette transporter ABCG2 (Q9UNQ0 whole entry): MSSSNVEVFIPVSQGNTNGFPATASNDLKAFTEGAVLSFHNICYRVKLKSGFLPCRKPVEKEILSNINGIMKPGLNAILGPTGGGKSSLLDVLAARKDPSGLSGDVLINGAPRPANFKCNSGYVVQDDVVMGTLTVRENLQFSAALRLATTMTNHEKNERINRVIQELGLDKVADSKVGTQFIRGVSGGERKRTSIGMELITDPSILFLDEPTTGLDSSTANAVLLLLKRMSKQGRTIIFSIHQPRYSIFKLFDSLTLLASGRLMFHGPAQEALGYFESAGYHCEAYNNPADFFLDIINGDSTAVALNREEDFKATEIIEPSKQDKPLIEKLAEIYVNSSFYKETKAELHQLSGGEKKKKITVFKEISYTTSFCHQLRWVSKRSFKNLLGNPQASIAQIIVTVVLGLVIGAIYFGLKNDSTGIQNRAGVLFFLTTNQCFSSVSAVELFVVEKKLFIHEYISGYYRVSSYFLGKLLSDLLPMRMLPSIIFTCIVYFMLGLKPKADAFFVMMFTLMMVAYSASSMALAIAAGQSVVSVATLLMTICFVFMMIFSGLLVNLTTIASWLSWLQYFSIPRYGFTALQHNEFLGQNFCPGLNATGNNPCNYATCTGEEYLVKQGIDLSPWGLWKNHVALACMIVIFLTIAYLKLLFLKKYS

[11] = cytotoxicity toward MDA-MB-231 breast cancer cells – cell-based, CellTiter-Glo luminescence, cherry-pick, cytotoxicity control for RAD54 inhibitor project, dose response (AID 651692); assay type: functional
[12] = biological target: T7, DNA repair protein RAD52 homolog (Homo sapiens, UniProt P43351); assay type: functional, biochemical
T7 sequence (P43351 whole entry): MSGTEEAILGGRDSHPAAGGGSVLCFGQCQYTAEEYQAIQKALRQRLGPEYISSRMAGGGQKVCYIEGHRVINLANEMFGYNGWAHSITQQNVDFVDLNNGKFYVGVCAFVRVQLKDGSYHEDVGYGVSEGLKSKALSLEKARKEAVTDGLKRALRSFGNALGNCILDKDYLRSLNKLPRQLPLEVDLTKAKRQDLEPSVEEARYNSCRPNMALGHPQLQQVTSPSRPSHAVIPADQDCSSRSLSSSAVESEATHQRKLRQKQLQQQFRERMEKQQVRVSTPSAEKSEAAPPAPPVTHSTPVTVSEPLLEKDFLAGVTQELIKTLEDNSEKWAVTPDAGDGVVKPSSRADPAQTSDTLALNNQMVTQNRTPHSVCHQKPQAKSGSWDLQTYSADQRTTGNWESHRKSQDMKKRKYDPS

[13] = biological target: T8, DNA repair and recombination protein RAD54-like (Homo sapiens, UniProt Q92698); assay: RAD54 Holliday junction migration blockers – biochemical, fluorescence, cherry-picked samples, dose series, confirmation (AID 651657); assay type: functional
T8 sequence (Q92698 whole entry): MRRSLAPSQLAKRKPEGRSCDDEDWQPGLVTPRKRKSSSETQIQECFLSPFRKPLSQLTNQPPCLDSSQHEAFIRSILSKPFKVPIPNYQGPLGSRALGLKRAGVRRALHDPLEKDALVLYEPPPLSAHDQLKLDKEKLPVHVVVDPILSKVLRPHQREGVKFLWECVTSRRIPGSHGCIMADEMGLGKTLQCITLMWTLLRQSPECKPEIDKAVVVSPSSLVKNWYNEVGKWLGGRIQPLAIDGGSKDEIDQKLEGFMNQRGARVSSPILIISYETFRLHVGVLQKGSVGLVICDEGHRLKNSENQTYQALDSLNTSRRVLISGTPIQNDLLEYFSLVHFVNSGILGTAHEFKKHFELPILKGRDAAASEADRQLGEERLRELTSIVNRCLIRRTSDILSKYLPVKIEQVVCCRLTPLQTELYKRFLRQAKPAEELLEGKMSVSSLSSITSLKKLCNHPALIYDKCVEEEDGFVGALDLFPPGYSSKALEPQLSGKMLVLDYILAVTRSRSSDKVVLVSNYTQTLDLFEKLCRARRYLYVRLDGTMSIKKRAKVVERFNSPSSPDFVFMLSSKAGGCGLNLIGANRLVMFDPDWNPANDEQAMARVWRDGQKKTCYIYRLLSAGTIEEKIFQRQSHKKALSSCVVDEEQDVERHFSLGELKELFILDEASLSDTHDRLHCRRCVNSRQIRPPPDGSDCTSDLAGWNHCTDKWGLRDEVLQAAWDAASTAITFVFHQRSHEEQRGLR

## COc1ccc(OC)c(N2C(=O)[C@@H]3C(c4ccccc4Cl)=NO[C@@H]3C2=O)c1
Estrogen receptor
  IC50: 9.78 µM (active)
[1]
  IC50: 0.469 µM (active)
Bcl-2-like protein 10
  IC50: 14.9 µM (active)
[2]
  IC50: > 100 µM (inactive)
[3]
  IC50: 4.35 µM (active)
Estrogen receptor beta [4]
  IC50: 2.49 µM (active)
[5]
  IC50: > 100 µM (active)
Estrogen receptor beta [6]
  IC50: > 50 µM (not active)
[7]
  IC50: 8.25 µM (active)
[8]
  IC50: 0.833 µM (active)
[9]
  IC50: 24.4 µM (inactive)

## COc1cc(C(=O)Nc2ccc(S(=O)(=O)NC(C)C)cc2)cc(OC)c1OC
[10]
  EC50: 1.32 µM (inactive)

## Cc1cc2oc3ccc(NCCC4CCCN4C)cc3c(=O)c2cc1C (stereo not given)
[11]
  AC50: 23.6 µM (active)
[12]
  AC50: 8.31 µM (active)
[13]
  AC50: 14.7 µM (active)
